Laboratory results taken from ChEMBL document CHEMBL5528002, “Identification of selective 5-LOX and FLAP inhibitors as novel anti-inflammatory agents by ligand-based virtual screening” (Eur J Med Chem, 2024).

Tests used:
[1] = molecular target: T1, Bifunctional epoxide hydrolase 2 (Homo sapiens) (UniProt P34913); experiment: Inhibition of human sEH assessed as enzyme remaining activity at 10 uM relative to control
T1 sequence (whole entry): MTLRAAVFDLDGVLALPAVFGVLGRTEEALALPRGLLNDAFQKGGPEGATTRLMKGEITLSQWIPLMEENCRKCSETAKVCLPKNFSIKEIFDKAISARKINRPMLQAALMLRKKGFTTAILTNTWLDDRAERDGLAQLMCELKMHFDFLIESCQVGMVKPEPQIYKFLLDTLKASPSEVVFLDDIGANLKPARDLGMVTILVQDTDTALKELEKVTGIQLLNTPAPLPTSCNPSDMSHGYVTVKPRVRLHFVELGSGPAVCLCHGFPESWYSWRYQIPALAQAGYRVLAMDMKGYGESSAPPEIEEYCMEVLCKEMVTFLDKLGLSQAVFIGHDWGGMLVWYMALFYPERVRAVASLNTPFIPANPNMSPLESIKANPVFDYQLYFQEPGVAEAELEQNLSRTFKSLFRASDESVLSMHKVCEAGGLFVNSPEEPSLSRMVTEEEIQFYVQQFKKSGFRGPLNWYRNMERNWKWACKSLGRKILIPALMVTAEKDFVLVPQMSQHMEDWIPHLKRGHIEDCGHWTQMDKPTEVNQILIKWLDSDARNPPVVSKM

Macrophage cell line [2] = experiment: Effect on lipid mediator formation in human M1-like phenotype MDM cells by measuring PGF2alpha formation at 10 uM pre-incubated for 15 mins followed by SACM stimulation and measured after 90 mins by UPLC-MS/MS analysis (reference value: 471 +/- 100 pg/ml); format: functional; conditions: time 105 min, 1.75 h
Macrophage cell line [3] = experiment: Effect on lipid mediator formation in human M1-like phenotype MDM cells by measuring TXB2 formation at 10 uM pre-incubated for 15 mins followed by SACM stimulation and measured after 90 mins by UPLC-MS/MS analysis (reference value: 8866 +/- 2561 pg/ml); format: functional; conditions: time 105 min, 1.75 h
Macrophage cell line [4] = experiment: Effect on lipid mediator formation in human M1-like phenotype MDM cells by measuring 4-HDHA formation at 10 uM pre-incubated for 15 mins followed by SACM stimulation and measured after 90 mins by UPLC-MS/MS analysis (reference value: 58 +/- 9 pg/ml); format: functional; conditions: time 105 min, 1.75 h
Macrophage cell line [5] = experiment: Effect on lipid mediator formation in human M1-like phenotype MDM cells by measuring LTB4 formation at 10 uM pre-incubated for 15 mins followed by SACM stimulation and measured after 90 mins by UPLC-MS/MS analysis relative to control; format: functional; conditions: time 105 min, 1.75 h
Macrophage cell line [6] = experiment: Effect on lipid mediator formation in human M1-like phenotype MDM cells by measuring PGD2 formation at 10 uM pre-incubated for 15 mins followed by SACM stimulation and measured after 90 mins by UPLC-MS/MS analysis relative to control; format: functional; conditions: time 105 min, 1.75 h
Macrophage cell line [7] = experiment: Effect on lipid mediator formation in human M1-like phenotype MDM cells by measuring 12-HEPE formation at 10 uM pre-incubated for 15 mins followed by SACM stimulation and measured after 90 mins by UPLC-MS/MS analysis relative to control; format: functional; conditions: time 105 min, 1.75 h
Macrophage cell line [8] = experiment: Effect on lipid mediator formation in human M1-like phenotype MDM cells by measuring DHA formation at 10 uM pre-incubated for 15 mins followed by SACM stimulation and measured after 90 mins by UPLC-MS/MS analysis relative to control; format: functional; conditions: time 105 min, 1.75 h
Macrophage cell line [9] = experiment: Effect on lipid mediator formation in human M2-like phenotype MDM cells by measuring LTB4 formation at 10 uM pre-incubated for 15 mins followed by SACM stimulation and measured after 90 mins by UPLC-MS/MS analysis (reference value: 509 +/- 30 pg/ml); format: functional; conditions: time 105 min, 1.75 h
Macrophage cell line [10] = experiment: Effect on lipid mediator formation in human M2-like phenotype MDM cells by measuring 5S,6R-diHETE formation at 10 uM pre-incubated for 15 mins followed by SACM stimulation and measured after 90 mins by UPLC-MS/MS analysis (reference value: 206 +/- 47 pg/ml); format: functional; conditions: time 105 min, 1.75 h
Macrophage cell line [11] = experiment: Effect on lipid mediator formation in human M2-like phenotype MDM cells by measuring t-LTB4 formation at 10 uM pre-incubated for 15 mins followed by SACM stimulation and measured after 90 mins by UPLC-MS/MS analysis relative to control; format: functional; conditions: time 105 min, 1.75 h
Macrophage cell line [12] = experiment: Effect on lipid mediator formation in human M2-like phenotype MDM cells by measuring TXB2 formation at 10 uM pre-incubated for 15 mins followed by SACM stimulation and measured after 90 mins by UPLC-MS/MS analysis relative to control; format: functional; conditions: time 105 min, 1.75 h
Macrophage cell line [13] = experiment: Effect on lipid mediator formation in human M2-like phenotype MDM cells by measuring RvD1 formation at 10 uM pre-incubated for 15 mins followed by SACM stimulation and measured after 90 mins by UPLC-MS/MS analysis relative to control; format: functional; conditions: time 105 min, 1.75 h
Macrophage cell line [14] = experiment: Effect on lipid mediator formation in human M2-like phenotype MDM cells by measuring arachidonic acid formation at 10 uM pre-incubated for 15 mins followed by SACM stimulation and measured after 90 mins by UPLC-MS/MS analysis relative to control; format: functional; conditions: time 105 min, 1.75 h
Macrophage cell line [15] = experiment: Effect on lipid mediator formation in human M2-like phenotype MDM cells by measuring EPA formation at 10 uM pre-incubated for 15 mins followed by SACM stimulation and measured after 90 mins by UPLC-MS/MS analysis relative to control; format: functional; conditions: time 105 min, 1.75 h
[16] = molecular target: T2, Polyunsaturated fatty acid 5-lipoxygenase (Homo sapiens) (UniProt P09917); experiment: Inhibition of 5-LOX in human Neutrophil at 10 uM using arachidonic acid as substrate preincubated with compound for 15 mins followed by substrate and A23187 addition measured after 10 mins by RP-HPLC analysis relative to control; format: cell-based; conditions: time 25.0 min
T2 sequence (whole entry): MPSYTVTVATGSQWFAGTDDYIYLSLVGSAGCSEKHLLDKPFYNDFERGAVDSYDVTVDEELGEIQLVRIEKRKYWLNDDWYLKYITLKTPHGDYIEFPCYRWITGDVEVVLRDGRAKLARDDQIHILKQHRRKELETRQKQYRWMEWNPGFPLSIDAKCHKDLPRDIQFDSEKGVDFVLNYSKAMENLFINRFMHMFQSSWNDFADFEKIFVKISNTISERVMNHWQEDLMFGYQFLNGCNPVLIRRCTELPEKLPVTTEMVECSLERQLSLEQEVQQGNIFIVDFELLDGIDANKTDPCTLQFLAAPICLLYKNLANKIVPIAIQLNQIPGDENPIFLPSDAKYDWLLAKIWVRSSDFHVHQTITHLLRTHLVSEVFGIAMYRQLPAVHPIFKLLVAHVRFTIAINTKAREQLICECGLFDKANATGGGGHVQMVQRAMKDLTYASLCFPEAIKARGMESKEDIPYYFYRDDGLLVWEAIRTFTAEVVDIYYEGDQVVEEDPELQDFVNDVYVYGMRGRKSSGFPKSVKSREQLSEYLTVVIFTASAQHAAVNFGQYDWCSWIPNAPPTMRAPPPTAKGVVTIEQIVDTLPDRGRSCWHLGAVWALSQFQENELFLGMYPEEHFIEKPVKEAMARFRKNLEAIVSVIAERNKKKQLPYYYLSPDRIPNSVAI

[17] = molecular target: T1, Bifunctional epoxide hydrolase 2 (Homo sapiens); experiment: Inhibition of human sEH at 10 uM relative to control

With `COc1ccc(C2=C/C(=C/c3ccc(O)cc3O)C(=O)O2)cc1` as the compound, how does the Activity [1] read?
The Activity was 71.5%.

And the Activity (Macrophage cell line [2])?
The Activity was 419 pg/mL.

What about the Activity (Macrophage cell line [3]) of the same compound?
Its Activity is 8338 pg/mL.

And the Activity (Macrophage cell line [4])?
Its Activity is 47 pg/mL.

What about the Activity (Macrophage cell line [5]) of the same compound?
The Activity was 8%.

What about the Activity (Macrophage cell line [6]) of the same compound?
Its Activity is 157%.

And the Activity (Macrophage cell line [7])?
Its Activity is 92%.

What about the Activity (Macrophage cell line [8]) of the same compound?
Its Activity is 108%.

What about the Activity (Macrophage cell line [9]) of the same compound?
The Activity was 22 pg/mL.

And the Activity (Macrophage cell line [10])?
The Activity was 8 pg/mL.

What about the Activity (Macrophage cell line [11]) of the same compound?
The Activity was 11%.

What about the Activity (Macrophage cell line [12]) of the same compound?
Its Activity is 76%.

And the Activity (Macrophage cell line [13])?
Its Activity is 114%.

And the Activity (Macrophage cell line [14])?
The Activity was 103%.

And the Activity (Macrophage cell line [15])?
The Activity was 103%.

And the inhibition [16]?
Its inhibition is > 50%.

What about the inhibition [17] of the same compound?
Its inhibition is > 35%.

`Oc1ccc(CCC2CCC(c3ccc(O)cc3)CO2)cc1` (centres undefined) was tested. Which Activity [1] did it give?
The Activity was 103%.

What about the Activity (Macrophage cell line [2]) of the same compound?
Its Activity is 331 pg/mL.

What about the Activity (Macrophage cell line [3]) of the same compound?
The Activity was 8319 pg/mL.

What about the Activity (Macrophage cell line [4]) of the same compound?
The Activity was 44 pg/mL.

And the Activity (Macrophage cell line [5])?
Its Activity is 6%.

What about the Activity (Macrophage cell line [6]) of the same compound?
Its Activity is 88%.

What about the Activity (Macrophage cell line [7]) of the same compound?
The Activity was 90%.

What about the Activity (Macrophage cell line [8]) of the same compound?
Its Activity is 94%.

And the Activity (Macrophage cell line [9])?
Its Activity is 71 pg/mL.

And the Activity (Macrophage cell line [10])?
Its Activity is 14 pg/mL.

And the Activity (Macrophage cell line [11])?
The Activity was 20%.

What about the Activity (Macrophage cell line [12]) of the same compound?
The Activity was 86%.

What about the Activity (Macrophage cell line [13]) of the same compound?
The Activity was 82%.

And the Activity (Macrophage cell line [14])?
The Activity was 113%.

And the Activity (Macrophage cell line [15])?
The Activity was 119%.

What about the inhibition [16] of the same compound?
Its inhibition is > 50%.

What about the inhibition [17] of the same compound?
The inhibition was > 35%.
